From patent US20230065799A1, “METHOD FOR ATTRIBUTING OLFACTORY TONALITIES TO OLFACTORY RECEPTOR ACTIVATION AND METHODS FOR IDENTIFYING COMPOUNDS HAVING THE ATTRIBUTED TONALITIES” (FIRMENICH SA, priority 2019, published 2023)
Like-named read-outs stand apart in the source and are kept apart here. Blank lines part the entries; values can stand above or below the molecule they belong to.

How the values were obtained:
OR7A17 = biological target: T1, OR7A17 (Homo sapiens, UniProt O14581); experiment: OR7A17 cell-based cAMP HTRF assay
T1 construct: Lucy (cleavable signal peptide) (N); FLAG (N); Rho (first 20 aa of bovine rhodopsin) (N); expressed in transfected cells
T1 sequence (O14581 1-309): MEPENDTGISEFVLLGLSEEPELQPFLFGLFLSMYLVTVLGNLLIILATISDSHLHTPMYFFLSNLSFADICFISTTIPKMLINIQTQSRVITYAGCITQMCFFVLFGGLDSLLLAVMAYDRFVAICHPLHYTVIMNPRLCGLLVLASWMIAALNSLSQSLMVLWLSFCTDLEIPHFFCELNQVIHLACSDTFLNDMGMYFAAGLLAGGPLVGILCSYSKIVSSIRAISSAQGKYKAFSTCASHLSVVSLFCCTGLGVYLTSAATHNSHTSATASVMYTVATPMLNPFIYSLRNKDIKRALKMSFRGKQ

OR5AN1 = biological target: T2, OR5AN1 (Homo sapiens, UniProt Q8NGI8); experiment: OR5AN1 cell-based cAMP HTRF assay; conditions: for Emax: read-out: OR5AN1 % Efficacy
T2 construct: Lucy (cleavable signal peptide) (N); FLAG (N); Rho (first 20 aa of bovine rhodopsin) (N); expressed in transfected cells
T2 sequence (Q8NGI8 1-311): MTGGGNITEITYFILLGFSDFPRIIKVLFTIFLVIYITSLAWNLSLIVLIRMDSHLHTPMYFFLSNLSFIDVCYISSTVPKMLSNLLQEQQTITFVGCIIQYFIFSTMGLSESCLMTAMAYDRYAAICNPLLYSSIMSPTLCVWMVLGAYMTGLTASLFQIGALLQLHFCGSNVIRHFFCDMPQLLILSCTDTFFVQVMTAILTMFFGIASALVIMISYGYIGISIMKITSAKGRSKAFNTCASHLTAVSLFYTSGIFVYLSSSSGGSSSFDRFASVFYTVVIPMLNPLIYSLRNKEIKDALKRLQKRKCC

OR5A1 = biological target: T3, OR5A1 (Homo sapiens, UniProt Q8NGJ0); experiment: OR5A1 cell-based cAMP HTRF assay; conditions: for Emax: read-out: OR5A1 % Efficacy
T3 construct: Lucy (cleavable signal peptide) (N); FLAG (N); Rho (first 20 aa of bovine rhodopsin) (N); expressed in transfected cells
T3 sequence (Q8NGJ0 1-315): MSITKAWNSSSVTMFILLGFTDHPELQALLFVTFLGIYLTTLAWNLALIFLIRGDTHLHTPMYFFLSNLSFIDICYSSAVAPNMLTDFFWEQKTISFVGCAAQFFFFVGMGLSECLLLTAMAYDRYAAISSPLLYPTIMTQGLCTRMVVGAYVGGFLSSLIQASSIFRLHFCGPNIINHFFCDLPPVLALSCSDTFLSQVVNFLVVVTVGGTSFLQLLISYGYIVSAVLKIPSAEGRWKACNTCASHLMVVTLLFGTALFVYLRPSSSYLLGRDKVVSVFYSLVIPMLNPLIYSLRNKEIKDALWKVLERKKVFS

OR1N2 = biological target: T4, OR1N2 (Homo sapiens, UniProt Q8NGR9, T287M/V230G/W23R); experiment: OR1N2 cell-based cAMP HTRF assay; conditions: read-out: OR1N2 % Efficacy
T4 construct: Lucy (cleavable signal peptide) (N); FLAG (N); Rho (first 20 aa of bovine rhodopsin) (N); expressed in transfected cells
T4 sequence (Q8NGR9 1-316 W23R/V230G/T287M): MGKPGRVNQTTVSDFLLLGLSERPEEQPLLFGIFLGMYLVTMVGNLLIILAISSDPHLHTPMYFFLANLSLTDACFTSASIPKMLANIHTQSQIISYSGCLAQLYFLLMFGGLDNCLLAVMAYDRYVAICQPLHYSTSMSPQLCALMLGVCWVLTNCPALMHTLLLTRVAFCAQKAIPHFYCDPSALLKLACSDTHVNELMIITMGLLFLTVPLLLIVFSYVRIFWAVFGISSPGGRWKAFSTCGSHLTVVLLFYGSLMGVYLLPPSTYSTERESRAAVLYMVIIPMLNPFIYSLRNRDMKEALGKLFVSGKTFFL

OR8D1 = biological target: T5, OR8D1 (Homo sapiens, UniProt Q8WZ84); experiment: OR8D1 cell-based cAMP HTRF assay; conditions: dose-response, 100% = full agonist; for Emax: read-out: OR8D1 % Efficacy
T5 construct: Lucy (cleavable signal peptide) (N); FLAG (N); Rho (first 20 aa of bovine rhodopsin) (N); expressed in transfected cells
T5 sequence (Q8WZ84 1-308): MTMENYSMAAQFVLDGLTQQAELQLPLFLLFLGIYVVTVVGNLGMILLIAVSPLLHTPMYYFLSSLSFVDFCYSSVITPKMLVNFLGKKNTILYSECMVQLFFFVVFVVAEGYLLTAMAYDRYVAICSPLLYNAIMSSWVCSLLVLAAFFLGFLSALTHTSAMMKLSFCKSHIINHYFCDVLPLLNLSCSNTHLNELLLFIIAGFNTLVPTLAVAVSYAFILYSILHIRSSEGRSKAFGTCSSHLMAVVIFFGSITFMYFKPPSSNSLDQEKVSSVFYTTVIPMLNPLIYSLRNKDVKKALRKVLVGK

OR1C1 = biological target: T6, OR1C1 (Homo sapiens, UniProt Q15619); experiment: OR1C1 cell-based cAMP HTRF assay; conditions: dose-response; 100% = full agonist; read-out: OR1C1 % Efficacy
T6 construct: Lucy (cleavable signal peptide) (N); FLAG (N); Rho (first 20 aa of bovine rhodopsin) (N); expressed in transfected cells
T6 sequence (Q15619 1-314): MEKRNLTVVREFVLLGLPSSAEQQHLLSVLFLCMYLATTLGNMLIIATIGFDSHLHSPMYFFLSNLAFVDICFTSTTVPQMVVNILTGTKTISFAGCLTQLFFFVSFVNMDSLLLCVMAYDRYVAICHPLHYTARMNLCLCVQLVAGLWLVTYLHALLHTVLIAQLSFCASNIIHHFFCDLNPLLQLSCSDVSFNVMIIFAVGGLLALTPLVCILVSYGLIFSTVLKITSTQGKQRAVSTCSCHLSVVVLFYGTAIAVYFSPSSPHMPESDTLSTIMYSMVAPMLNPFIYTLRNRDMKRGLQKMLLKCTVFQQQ

OR10J5 = biological target: T7, OR10J5 (Homo sapiens, UniProt Q8NHC4); experiment: OR10J5 cell-based cAMP HTRF assay; conditions: for Emax: read-out: OR10J5 % Efficacy
T7 construct: Lucy (cleavable signal peptide) (N); FLAG (N); Rho (first 20 aa of bovine rhodopsin) (N); expressed in transfected cells
T7 sequence (Q8NHC4 1-309): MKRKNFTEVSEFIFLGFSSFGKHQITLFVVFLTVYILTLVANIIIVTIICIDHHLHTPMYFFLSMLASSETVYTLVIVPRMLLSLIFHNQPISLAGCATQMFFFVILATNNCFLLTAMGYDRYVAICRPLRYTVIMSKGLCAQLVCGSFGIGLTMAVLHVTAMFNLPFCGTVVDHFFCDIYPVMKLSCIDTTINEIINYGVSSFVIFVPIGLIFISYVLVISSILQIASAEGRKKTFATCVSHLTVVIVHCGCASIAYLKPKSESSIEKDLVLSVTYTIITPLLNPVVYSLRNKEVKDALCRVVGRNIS

[1] = dose-response, 100% = full agonist

OR7A17 % Efficacy (OR7A17; [1]): 83%
Molecule: 1-(2,3,8,8-tetramethyl-1,3,4,6,7,8~{a}-hexahydronaphthalen-2-yl)ethanone; 1-(2,3,8,8-tetramethyl-1,3,5,6,7,8~{a}-hexahydronaphthalen-2-yl)ethanone; 1-(2,3,8,8-tetramethyl-1,3,4,5,6,7-hexahydronaphthalen-2-yl)ethanone [Derambrene]

OR7A17 % Efficacy (OR7A17; [1]): 74%
Molecule: 1-(4,8-dimethyl-12-methylidenecyclododeca-4,8-dien-1-yl)ethanone; 1-(2,6,10-trimethylcyclododeca-1,5,9-trien-1-yl)ethanone; 1-(2,6,10-trimethylcyclododeca-2,5,9-trien-1-yl)ethanone [Trimofix]

Emax (OR7A17; dose-response, 100% = full agonist, read-out: OR7A17 % Efficacy): 65%
Molecule: CC(=O)/C(C)=C/C1C(C)=CCCC1(C)C (racemic) [Methyl ionone gamma, (+−)-(e)-3-methyl-4-(2,6,6-trimethyl-2-cyclohexen-1-yl)-3-buten-2-one]

Emax (OR1N2; [1]): 100%
Molecule: O=C1CCCCCCCC=CCCCCCCO1 [Ambrettolide, 1-oxacycloheptadec-10-en-2-one]

activation of OR7A17 (blonde woody tonality) (OR7A17; FIG. 1): activation
activation of OR5A1 (violet tonality) (OR5A1; FIG. 1): activation
Emax (OR5A1; [1]): 100%
Molecule: CC(=O)C=CC1=C(C)CCCC1(C)C [Beta-ionone, 4-(2,6,6-trimethylcyclohexen-1-yl)but-3-en-2-one]

Emax (OR8D1): 76%
Molecule: CCCC1CC(=O)C=C(C)C1 (stereo not drawn) [Celery ketone, 3-methyl-5-propylcyclohex-2-en-1-one]

Emax (OR8D1): 97%
Molecule: CC1=C(O)C(=O)CC1 [Cyclotone, 2-hydroxy-3-methylcyclopent-2-en-1-one]

Emax (OR1C1): 95%
Molecule: C=CC(C)(O)CCCC(C)C (stereo not drawn) [Dihydrolinalool, 3,7-dimethyloct-1-en-3-ol]

Emax (OR1C1): 99%
Molecule: C=CC(C)(O)CCC=C(C)CC (stereo not drawn) [Ethyl Linalool, 3,7-dimethylnona-1,6-dien-3-ol]

Emax (OR5AN1; [1]): 86%
Molecule: O=C1CCC=CCCCCCCCCCC1 [Exaltenone, cyclopentadec-4-en-1-one]

Emax (OR10J5; [1]): 40%
Molecule: CC(C)CC1CC(C)(O)CCO1 (stereo not drawn) [Florol, 4-methyl-2-(2-methylpropyl)oxan-4-ol]

Emax (OR10J5; [1]): 58%
Molecule: Cc1ccc2c(c1)CC(C)(CO)C2 (stereo not drawn) [Lilyflore, (2,5-dimethyl-1,3-dihydroinden-2-yl)methanol]

Emax (OR1C1): 100%
Molecule: C=CC(C)(O)CCC=C(C)C (stereo not drawn) [Linalool, 3,7-dimethylocta-1,6-dien-3-ol]

Emax (OR5A1; [1]): 82%
Molecule: CCC(=O)C=CC1=C(C)CCCC1(C)C [Methylionone beta, 1-(2,6,6-trimethylcyclohexen-1-yl)pent-1-en-3-one]

Emax (OR8D1): 80%
Molecule: CCC=C1OC(=O)c2ccccc21 [Propylidene phthalide, 3-propylidene-2-benzofuran-1-one]

OR8D1 % Efficacy (OR8D1): 100%
Molecule: CC1=C(O)C(=O)OC1C (stereo not drawn) [Sotolone, 4-hydroxy-2,3-dimethyl-2~{H}-furan-5-one]

Emax (OR1C1): 79%
Molecule: CCC(C)(O)CCCC(C)C (stereo not drawn) [Tetralinol, 3,7-dimethyloctan-3-ol]

OR10J5 % Efficacy (OR10J5; [1]): 100%
Molecule: methyl 2-[[3-(4-hydroxy-4-methylpentyl)cyclohex-3-en-1-ylidene]methylamino]benzoate; methyl 2-[[4-(4-hydroxy-4-methylpentyl)cyclohex-3 -en-1-ylidene]methylamino]benzoate [Lyronol 50 dipg]

The next lines start with the molecule.

Molecule: 3-methylcyclopentadec-4-en-1-one; 3-methylcyclopentadec-5-en-1-one [Muscenone delta]
OR5AN1 % Efficacy (OR5AN1; [1]): 86%

Molecule: 4-(2,6,6-trimethylcyclohexen-1-yl)but-3-en-2-one; 4-(2,6,6-trimethylcyclohex-2-en-1-yl)but-3-en-2-one [Violette AT]
OR5A1 % Efficacy (OR5A1; [1]): 78%

Molecule: O=C1CCCCCCCCCCCC(=O)OCCO1 [Astrotone, 1,4-dioxacycloheptadecane-5,17-dione]
Emax (OR1N2; [1]): 59%

Molecule: O=C1CCCCCCCC=CCCCCCCC1 [Civetone, cycloheptadec-9-en-1-one]
Emax (OR1N2): 94%

Molecule: CC(=O)C=CC1=C(C)CCC(C)C1(C)C (stereo not drawn) [Irone beta, 4-(2,5,6,6-tetramethylcyclohexen-1-yl)but-3-en-2-one]
Emax (OR5A1; [1]): 91%

Molecule: CC(C)(O)CCCC1=CCC(C=O)CC1 (stereo not drawn) [Lyral, 3-(4-hydroxy-4-methylpentyl)cyclohex-3-ene-1-carbaldehyde; 4-(4-hydroxy-4-methylpentyl)cyclohex-3-ene-1-carbaldehyde]
Emax (OR10J5): 100%

Molecule: CC(=CCCC=O)CCCC(C)(C)O [Mahonial, 9-hydroxy-5,9-dimethyldec-4-enal]
Emax (OR10J5; [1]): 96%

Molecule: CCC1OC(=O)C(O)=C1C (stereo not drawn) [Maple Furanone, 2-ethyl-4-hydroxy-3-methyl-2~{H}-furan-5-one]
OR8D1 % Efficacy (OR8D1): 100%

Molecule: C[C@@H]1CCCCCCCCCCCCC(=O)C1 [Muscone, (R)-3-methylcyclopentadecanone]
Emax (OR5AN1; [1]): 75%

Molecule: CC(=O)c1c(C)c([N+](=O)[O-])c(C(C)(C)C)c([N+](=O)[O-])c1C [Musk ketone, 1-(4-~{tert}-butyl-2,6-dimethyl-3,5-dinitrophenyl)ethanone]
Emax (OR5AN1; [1]): 100%

Molecule: Cc1c([N+](=O)[O-])c(C)c([N+](=O)[O-])c(C(C)(C)C)c1[N+](=O)[O-] [Musk xylol, 1-~{tert}-butyl-3,5-dimethyl-2,4,6-trinitrobenzene]
OR5AN1 % Efficacy (OR5AN1): 97%

Molecule: C[C@@H]1[C@@H]2C[C@H](C[C@]13C=CC(=O)CC3)C2(C)C [Wolfwood, (1~{S},2~{R},3~{R},5~{R})-2,6,6-trimethylspiro[bicyclo[3.1.1]heptane-3,4′-cyclohex-2-ene]-1′-one]
OR7A17 % Efficacy (OR7A17; [1]): 100%

Molecule: CC1(C)CCC[C@]2(C)CC(=O)CC[C@@H]12 [Z-95, (4~{a}~{S},8~{a}~{R})-5,5,8~{a}-trimethyl-3,4,4~{a},6,7,8-hexahydro-1~{H}-naphthalen-2-one]
OR7A17 % Efficacy (OR7A17; [1]): 82%
